The assay addresses T1, CRTH2 receptor (hCRTH2) (Homo sapiens, UniProt Q9Y5Y4).
T1 construct: expressed in transfected cells; host or cells: HEK cells (HEK-hCRTH2 cell line), membranes
T1 sequence (Q9Y5Y4 1-395): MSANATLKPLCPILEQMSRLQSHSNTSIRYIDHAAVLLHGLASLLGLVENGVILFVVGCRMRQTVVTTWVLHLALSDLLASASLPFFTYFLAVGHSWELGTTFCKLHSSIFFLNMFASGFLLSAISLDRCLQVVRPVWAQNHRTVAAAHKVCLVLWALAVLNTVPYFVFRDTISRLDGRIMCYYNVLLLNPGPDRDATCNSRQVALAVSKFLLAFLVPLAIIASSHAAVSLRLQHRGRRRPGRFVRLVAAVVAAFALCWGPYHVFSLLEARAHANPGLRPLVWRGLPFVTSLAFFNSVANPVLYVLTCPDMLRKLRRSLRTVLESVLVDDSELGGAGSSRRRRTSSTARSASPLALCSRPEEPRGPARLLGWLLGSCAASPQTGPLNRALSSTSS
The assay is described as follows: Radioligand binding assay ([3H]PGD2 competition, membranes of HEK-hCRTH2 cell line). Conditions: 3.0 nM [3H]PGD2, HEK-hCRTH2 membranes, 60 min, room temperature. As to the method:
Competing ligands were diluted in dimethylsulfoxide (Me2SO) that was kept constant at 1% (v/v) of the final incubation volume. The reaction was initiated by the addition of 8-20 μg of membrane protein prepared from a HEK-hCRTH2 cell line. Total and non-specific binding were determined in the absence and the presence of […] PGD2, respectively. […] The reaction was routinely conducted for 60 min at room temperature and terminated by rapid filtration through prewetted (0.3% polyethyleneimine) 96-well printed filtermate (Wallac) using a Tomtec harvester. After washing with cold buffer, the filter was dried for 2 minutes in microwave, and Meltilex Scintillator sheet (Wallac) was melted on for 2 min.

SMILES strings stand for the structures. pKi: −log10 of the molar value. Values joined by “and” are separate entries in the source; they are usually repeats but may differ in a detail not shown here. Identical values can stand only once. Like-named read-outs stand apart in the source and are kept apart here.

As a reminder, the pKi is the Ki on a negative log10 scale, so that one unit is a factor of ten. `O=C(O)CCCCc1nc2cc(C3=NOC(c4ccccc4)C3)ccc2c(=O)n1-c1ccc(Cl)cc1` (stereo not drawn) [Example 15K]: the pKi (read-out: Ki) is at least 8.00.
Still for that read-out and setting: next, `C[C@@]1(c2nc3ccc(Cl)cc3[nH]2)CC(c2ccc3c(=O)n(-c4ccc(F)cc4)c(CCCCC(=O)O)nc3c2)=NO1` [Example 186]: at least 8.00; `O=C(O)CCCCc1nc2cc(-c3noc(C4Cc5ccccc5C4)n3)ccc2c(=O)n1-c1ccc(F)cc1` [Example 242]: at least 8.00.
The compound `CC1(c2cc(F)cc(F)c2)CC(c2ccc3c(=O)n(-c4ccc(F)cc4)c(CCCCC(=O)O)nc3c2)=NO1` (stereo not drawn) [Example 125] gave a pKi (Ki) of at least 8.00.
Regarding `CC[C@@](O)(c1ccc(F)cc1)c1cc(-c2ccc3c(=O)n(-c4ccc(F)cc4)c(CCCCC(=O)O)nc3c2)no1` [Example 256], the pKi (read-out: Ki) is at least 8.00.
Same read-out and setting: next, `C[C@@]1(c2nc3ccccn3c2Cl)CC(c2ccc3c(=O)n(-c4ccc(F)cc4)c(CCCCC(=O)O)nc3c2)=NO1` [Example 167]: at least 8.00; `O=C(O)CCCCc1nc2cc(-c3cn(-c4ccc(F)cc4)nn3)ccc2c(=O)n1-c1ccc(F)cc1` [Example 105]: at least 8.00; `CC[C@@H](c1ccc(F)cc1)c1cc(-c2ccc3c(=O)n(-c4ccc(F)cc4)c(CCCCC(=O)O)nc3c2)no1` [Example 43D]: at least 8.00.
Same read-out and setting: under `CC(C)(C)OC(=O)C1(C)CC(c2ccc3c(=O)n(-c4ccc(F)cc4)c(CCCCC(=O)O)nc3c2)=NO1` (stereo not drawn) [Example 192] stands at least 8.00.
Turning to `O=C(O)CCCCc1nc2cc(C3=NOC(c4ccccc4)(C(F)(F)F)C3)ccc2c(=O)n1-c1ccc(F)cc1` (stereo not drawn) [Example 127], the pKi (read-out: Ki) is 7.30 to 8.00.
The same measure, in the same setting: next, `O=C(O)CCCCc1nc2cc(C3=NOC4(CCc5c(F)cccc54)C3)ccc2c(=O)n1-c1ccc(F)cc1` (stereo not drawn) [Example 144]: 7.30 to 8.00; `CC(C)(O)c1cn(-c2ccc3c(=O)n(-c4ccc(F)cc4)c(CCCCC(=O)O)nc3c2)nn1` [Example 21C]: 7.30 to 8.00.
Still for that read-out and setting: next, `O=C(O)CCCCc1nc2cc(-c3cc(CS(=O)(=O)c4nc5ccccc5[nH]4)on3)ccc2c(=O)n1-c1ccc(F)cc1` [Example 39L]: at least 8.00; `O=C(O)CCCCc1nc2cc(-c3cc(Cc4ccc(F)cc4)on3)ccc2c(=O)n1-c1ccccc1` [Example 25F]: at least 8.00.
Under “Ki”, `C[C@@]1(c2nc3ccccc3s2)CC(c2ccc3c(=O)n(-c4ccc(F)cc4)c(CCCCC(=O)O)nc3c2)=NO1` [Example 180] had a pKi of at least 8.00.
Turning to `CC1(c2nc3ccccn3c2Cl)CC(c2ccc3c(=O)n(-c4ccc(F)cc4)c(CCCCC(=O)O)nc3c2)=NO1` (stereo not drawn) [Example 162], the pKi (read-out: Ki) is at least 8.00.
As to `CC(c1ccccc1)C1(C)CC(c2ccc3c(=O)n(-c4ccc(F)cc4)c(CCCCC(=O)O)nc3c2)=NO1` (single isomer, unassigned) [Example 42, 5-(3-(4-fluorophenyl)-7-(5-methyl-5-(1-phenylethyl)-4,5-dihydroisoxazol-3-yl)-4-oxo-3,4-dihydroquinazolin-2-yl)pentanoic acid], the pKi (read-out: Ki) was at least 8.00.
Take `O=C(O)CCCCc1nc2cc(-c3cc(CNS(=O)(=O)c4ccc(-c5ccccc5)cc4)on3)ccc2c(=O)n1-c1ccc(F)cc1` [Example 24M]: the pKi (read-out: Ki) was 7.30 to 8.00 and 7.39.
The same measure, in the same setting: under `C[C@@]1(C(=O)Nc2ccc(F)cc2O)CC(c2ccc3c(=O)n(-c4ccc(F)cc4)c(CCCCC(=O)O)nc3c2)=NO1` [Example 231] stands at least 8.00; under `CC1(c2nc3cc(Cl)ccc3[nH]2)CC(c2ccc3c(=O)n(-c4ccc(Cl)cc4)c(CCCCC(=O)O)nc3c2)=NO1` (stereo not drawn) [Example 206], at least 8.00.
Consider `C[C@]1(Cc2ccc(F)cc2)CC(c2ccc3c(=O)n(-c4ccc(F)cc4)c(CCCCC(=O)O)nc3c2)=NO1` [Example 292], for which the pKi (read-out: Ki) was 7.30 to 8.00.
The same measure, in the same setting: next, `CCC(c1ccc(F)cc1)c1cc(-c2ccc3c(=O)n(-c4ccc(F)cc4)c(CCCCC(=O)O)nc3c2)no1` (stereo not drawn) [Example 261]: at least 8.00; `C[C@@]1(c2nc3ccc(Cl)cc3[nH]2)CC(c2ccc3c(=O)n(-c4ccc(Cl)cc4)c(CCCCC(=O)O)nc3c2)=NO1` [Example 222]: at least 8.00; `CC1(c2ccc(F)c(F)c2)CC(c2ccc3c(=O)n(-c4ccc(F)cc4)c(CCCCC(=O)O)nc3c2)=NO1` (stereo not drawn) [Example 124]: at least 8.00.
For the compound `O=C(O)CCCCc1nc2cc(C3=NOC(c4ccccn4)C3)ccc2c(=O)n1-c1ccc(Cl)cc1` (stereo not drawn) [Example 15L], the pKi (read-out: Ki) is at least 8.00.
On the same count and under the same terms, next, `O=C(O)CCCCc1nc2cc(C3=NOC(c4ccccn4)C3)ccc2c(=O)n1-c1ccc(F)cc1` (stereo not drawn) [Example 15G]: 7.30 to 8.00; `CCCCC1(c2ccccc2)CC(c2ccc3c(=O)n(-c4ccc(F)cc4)c(CCCCC(=O)O)nc3c2)=NO1` (stereo not drawn) [Example 255]: at least 8.00; `C[C@]1(C(=O)Nc2cc(F)ccc2O)CC(c2ccc3c(=O)n(-c4ccc(F)cc4)c(CCCCC(=O)O)nc3c2)=NO1` [Example 189]: at least 8.00.
Still for that read-out and setting: next, `O=C(O)CCCCc1nc2cc(-c3cc(CNS(=O)(=O)c4cc(F)cc(F)c4)on3)ccc2c(=O)n1-c1ccc(F)cc1` [Example 24N]: at least 8.00; `Cc1cc(-c2ccc3c(=O)n(-c4ccc(F)cc4)c(CCCCC(=O)O)nc3c2)no1` [Example 5i]: 7.30 to 8.00; `O=C(O)CCCCc1nc2cc(-c3noc(-c4ccc(C(F)(F)F)cc4)n3)ccc2c(=O)n1-c1ccc(F)cc1` [Example 104]: 7.30 to 8.00.
Same read-out and setting: under `O=C(O)CCCCc1nc2cc(-c3cc(C[S+]([O-])c4nc5ccccc5[nH]4)on3)ccc2c(=O)n1-c1ccc(F)cc1` (stereo not drawn) [Example 40, 5-(7-(5-((1H-benzo[d]imidazol-2-ylsulfinyl)methyl)isoxazol-3-yl)-3-(4-fluorophenyl)-4-oxo-3,4-dihydroquinazolin-2-yl)pentanoic acid] stands 7.30 to 8.00; under `O=C(O)CCCCc1nc2cc(-c3noc(C4CCc5ccccc5C4)n3)ccc2c(=O)n1-c1ccc(F)cc1` (stereo not drawn) [Example 247], 7.30 to 8.00; under `CC(O)(c1cc(-c2ccc3c(=O)n(-c4ccc(F)cc4)c(CCCCC(=O)O)nc3c2)no1)c1ccccc1F` (stereo not drawn) [Example 129], at least 8.00.
For `C[C@@]1([C@@H](O)c2ccccc2)CC(c2ccc3c(=O)n(-c4ccc(F)cc4)c(CCCCC(=O)O)nc3c2)=NO1` [Example 26C], under “read-out: Ki”, the pKi is 7.30 to 8.00.
The same measure, in the same setting: under `CC1(C(=O)Nc2ccc(F)cc2O)CC(c2ccc3c(=O)n(-c4ccc(F)cc4)c(CCCCC(=O)O)nc3c2)=NO1` (stereo not drawn) [Example 229] stands at least 8.00.
Take `O=C(O)CCCCc1nc2cc(-n3cc(Cc4ccccc4)nn3)ccc2c(=O)n1-c1ccc(F)cc1` [Example 21E]: under “read-out: Ki”, the pKi is at least 8.00.
On the same count and under the same terms, under `C[C@@]1(c2nc3ccc(F)cc3[nH]2)CC(c2ccc3c(=O)n(-c4ccc(F)cc4)c(CCCCC(=O)O)nc3c2)=NO1` [Example 182] stands at least 8.00.
On the same count and under the same terms, under `C[C@@]1(c2nc3ccc(F)cc3o2)CC(c2ccc3c(=O)n(-c4ccc(F)cc4)c(CCCCC(=O)O)nc3c2)=NO1` [Example 184] stands ≥ 8.00 and 8.24; under `O=C(O)CCCCc1nc2cc(-c3cc([C@H](O)c4ccc(F)cc4)on3)ccc2c(=O)n1-c1ccc(F)cc1` [Example 25C], at least 8.00; under `C[C@@]1(Cc2ccc(F)cc2)CC(c2ccc3c(=O)n(-c4ccc(F)cc4)c(CCCCC(=O)O)nc3c2)=NO1` [Example 293], 7.30 to 8.00.
Turning to `O=C(O)CCCCc1nc2cc(-c3cc(Cc4ccccc4)on3)ccc2c(=O)n1-c1ccc(F)cc1` [Example 100], the pKi (read-out: Ki) is at least 8.00.
On the same count and under the same terms, under `CC1(C(=O)Nc2cc(Cl)c(Cl)cc2O)CC(c2ccc3c(=O)n(-c4ccc(F)cc4)c(CCCCC(=O)O)nc3c2)=NO1` (stereo not drawn) [Example 165] stands 7.30 to 8.00.
Still for that read-out and setting: under `C[C@]1(c2nc3cc(F)ccc3o2)CC(c2ccc3c(=O)n(-c4ccc(F)cc4)c(CCCCC(=O)O)nc3c2)=NO1` [Example 164] stands 7.30 to 8.00; under `C[C@]1(c2nc3cc(F)c(F)cc3[nH]2)CC(c2ccc3c(=O)n(-c4ccc(Cl)cc4)c(CCCCC(=O)O)nc3c2)=NO1` [Example 225], 7.30 to 8.00; under `CO[C@H](c1ccccc1)c1cc(-c2ccc3c(=O)n(-c4ccc(F)cc4)c(CCCCC(=O)O)nc3c2)no1` [Example 149], at least 8.00.
Still for that read-out and setting: under `O=C(O)CCCCc1nc2cc(C3=NOC(c4nc5ccc(Cl)cc5o4)C3)ccc2c(=O)n1-c1ccc(F)cc1` (stereo not drawn) [Example 150] stands at least 8.00.
As to `C[C@]1([C@H](O)c2ccc(F)cc2)CC(c2ccc3c(=O)n(-c4ccc(F)cc4)c(CCCCC(=O)O)nc3c2)=NO1` [Example 288], for the setting “read-out: Ki”, the pKi was 7.30 to 8.00.
`CC1(c2ccc(Cl)cc2)CC(c2ccc3c(=O)n(-c4ccc(F)cc4)c(CCCCC(=O)O)nc3c2)=NO1` (stereo not drawn) [Example 120] had a pKi (Ki) of at least 8.00.
As to `O=C(O)CCCCc1nc2cc(-c3cc(Cn4nnc5ccccc54)on3)ccc2c(=O)n1-c1ccc(F)cc1` [Example 111], the pKi (read-out: Ki) was at least 8.00.
On the same count and under the same terms, next, `O=C(O)CCCCc1nc2cc(-c3cn(-c4cccnc4)nn3)ccc2c(=O)n1-c1ccc(F)cc1` [Example 20, 5-{3-(4-fluorophenyl)-4-oxo-7-[1-(pyridin-3-yl)-1H-1,2,3-triazol-4-yl]-3,4-dihydroquinazolin-2-yl}pentanoic acid]: at least 8.00.

The record behind these values is patent publication US8927559B2, “Quinazolinone-type compounds as CRTH2 antagonists” (Merck Sharp & Dohme Corp., priority 2010, dated 2015).
